Where two headings read alike, the source gives them in different places.

What all share (assay type): cell-based
The target in assay [1] is T1, Nrf2 (Homo sapiens, UniProt Q16236).
T1 sequence (Q16236 1-605): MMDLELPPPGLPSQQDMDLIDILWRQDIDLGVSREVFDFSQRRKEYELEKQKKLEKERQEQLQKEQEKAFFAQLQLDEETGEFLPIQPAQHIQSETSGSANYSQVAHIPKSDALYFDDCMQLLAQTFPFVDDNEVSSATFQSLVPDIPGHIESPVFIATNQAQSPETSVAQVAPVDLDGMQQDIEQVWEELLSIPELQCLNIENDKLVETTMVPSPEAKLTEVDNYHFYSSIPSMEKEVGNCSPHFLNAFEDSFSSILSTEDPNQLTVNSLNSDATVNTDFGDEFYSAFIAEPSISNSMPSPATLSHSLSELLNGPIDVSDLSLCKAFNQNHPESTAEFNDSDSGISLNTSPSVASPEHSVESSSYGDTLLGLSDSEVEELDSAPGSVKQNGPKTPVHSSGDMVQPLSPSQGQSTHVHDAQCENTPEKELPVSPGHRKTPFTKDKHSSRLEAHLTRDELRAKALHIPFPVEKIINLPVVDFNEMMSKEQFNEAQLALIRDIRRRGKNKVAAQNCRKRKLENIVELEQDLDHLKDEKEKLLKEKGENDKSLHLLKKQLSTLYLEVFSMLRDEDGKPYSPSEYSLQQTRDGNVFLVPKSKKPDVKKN
Put plainly: Protein degradation assay in huH1 cells by Western blot. Also noted: tested for protein degradation in huH1 cells; host or cells: huH1 (Huh1) human hepatoma cells. The note with it: X marks the class >10 μM, read-out: DC50 huHI1 cells >10 μM. How it is done: Representative Compounds of the Disclosure were tested for protein degradation in huH1 cells (Vendor: JCRB: Cat #JCRB0199; Description: Human hepatoma) by Western blot analysis according to the following general protocol.
Day 0: Plated the Huh1 cells into 10-cm dishes (1.5×10^6/dish)
Day 1: Treated the cells with compounds at five concentrations, e.g., 0.01 μM, 0.04 μM, 0.11 μM, 0.33 μM and 1 μM; or 0.4 μM, 1.1 μM, 3.3 μM, 10 μM, and 30 μM.
Day 4: Harvested the cell pellets, spilt 1/3 of the pellet to extract RNA by Nucleospin RNA plus kit and measure Nrf2 and GPX2 by RT-PCR, the remaining 2/3 of the pellet to run Western blot analysis.
• a) Cell samples were lysed with lysis buffer (1×Cell lysis buffer added Protease inhibitor and phosphatase inhibitor) on ice for 5˜10 min and spun at 15,000 rpm in an Eppendorf microfuge for 15 min at 4° C. • b) The protein supernatant was collected in a new 1.5 ml tube and the protein concentrations were determined by the Pierce BCA kit (Thermo #23225). • c) Mixed protein sample with 5×SDS-PAGE loading buffer. • d) Boiled for 5 min. • e) Cooled at RT or on ice for 5 min. • f) Flash spun to bring down condensation prior to loading gel.
• a) After flash spinning the samples, 20 μg protein were loaded into the wells. • b) Using SDS-PAGE running buffer. • c) Run with Constant Voltage (70 V) for 1.5-2 hr. Membrane transfer • a) Assembled “sandwich” for Invitrogen iBlot. • b) Transferred for 9 min using P0 program. • c) Immersed membrane in Odyssey blocking buffer or 5% BSA for at least 1 hr.
• a) Incubated with 1st Antibody 1:500 diluted in blocking buffer overnight at 4° C. • b) Washed 4×15 min with 0.05-0.1% Tween 20 in TBS. • c) Incubated with secondary antibody 1:10K diluted in blocking buffer for at least 1 hr at RT. • d) Washed 3×15 min with 0.05-0.1% Tween 20 in TBS. • e) Detected with ODYSSEY (Li—COR) The results are provided in Table 5.

The subject of another assay is A549. Put plainly: Cancer cell viability, A549 (CellTiter-Glo). The note with it: Homo sapiens, 72 h, A549 cells, 3 days, read-out: Cellular IC50 (μM) A549. Summed up:
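A549 and/or LK-2 lung carcinoma cells seeded overnight (20 K/mL A549; 35 K/mL LK-2), then exposed to compound for 3 days. Viability read as CellTiter-Glo luminescence after 15 min lysis; data fitted to curves.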

The next assay deals with LK-2. The experiment in a line: Cancer cell viability, LK-2 (CellTiter-Glo). The note with it: LK-2 cells, 3 days, read-out: Cellular IC50 (μM) LK-2. How it is done:
Representative Compounds of the Disclosure were tested in A549 (Vendor: ATCC; Cat #CCL-185; Description: lung, carcinoma) and/or LK-2 (Vendor: Riken; Cat #RCB1970; Description: lung, squamous cell carcinoma) cellular viability assays according to the following general protocol. • 1. Observed the cells under microscope. • 2. Aspirated the media and added 5 mL trypsin and incubate for 3 mins. • 3. Added 10 mL fresh media and harvested all the cells in to 15 mL tubes. • 4. Centrifuged the cells at 1000 rpm for 5 mins. • 5. Re-suspended the cells with 11 mL media and took 1 mL to determine the cell number and viability. • 6. Prepared cells suspension at 20 K/mL (A549) or 35 K/mL (LK-2) • 7. Seeded the cells into 96-well plate and incubated for overnight. • 8. Added compounds into each well with a HPD300 machine (nine three-fold dilutions typically starting at 30 µM final concentration) and incubated for 3 days. • 9. After 3 days, took out the plates from the incubator and observed the cells under microscope. • 10. Passed a film at the bottom of the plates. • 11. Equilibrated the plate and its contents at room temperature for approximately 30 minutes. • 12. Thawed the CellTiter-Glo® Buffer and equilibrated to room temperature prior to use. • 13. Equilibrated the lyophilized CellTiter-Glo® Substrate to room temperature prior to use. • 14. Transferred 100 ml of CellTiter-Glo® Buffer into the amber bottle containing CellTiter-Glo® Substrate to reconstituted the lyophilized enzyme/substrate mixture. • 15. Mixed by gently vortexing, swirling or inverting the contents to obtain a homogeneous solution. • 16. Added 100 μL CellTiter-Glo® Reagent into each well • 17. Mixed contents for 15 minutes on an orbital shaker to induce cell lysis. • 18. Recorded luminescence with EnSpire machine. • 19. Passed the raw data into the file and analyzed the data with XLfit software.

Assay [2] concerns the target T1, Nrf2. Put plainly: Nrf2 degradation in A549 HiBiT-Nrf2 cells, Nano-Glo HiBiT lytic detection (HiBiT readout). Further details: host or cells: A549 HiBiT-Nrf2 cells (engineered line bought from Promega). Summed up: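 A549 HiBiT-Nrf2 cells seeded at 5,000 cells/well in Ham's F-12 with 10% FBS, then treated next day for 6 h and 20 h at 37 °C, 5% CO2. Nrf2 degradation read by Nano-Glo HiBiT lytic luminescence after 30 min at room temperature; staurosporine served as control.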

Setting [3] is: 6 h, read-out: DC50 (nM) at 6 h.
Where [4] appears, read: 20 h, read-out: DC50 (nM) at 20 h.

For the molecule `Cc1ccccc1C(=O)N1CCc2cc(-c3nc(NC(=O)Cc4cccc(OCCOCCOCCOCCNc5cccc6c5C(=O)N(C5CCC(=O)NC5=O)C6=O)c4)sc3C)ccc21` (stereo not shown) [Cpd. No. 3, 2-(3-(2-(2-(2-(2-((2-(2,6-dioxopiperidin-3-yl)-1,3-dioxoisoindolin-4-yl)amino)ethoxy)ethoxy)ethoxy)ethoxy)phenyl)-N-(5-methyl-4-(1-(2-methylbenzoyl)indolin-5-yl)thiazol-2-yl)acetamide], at Nrf2 [1], the DC50 is greater than 10000 nM.

On to `Cc1ccccc1C(=O)N1CCc2cc(-c3nc(NC(=O)Cc4cccc(OCCOCCOCCOCCOCCNc5cccc6c5C(=O)N(C5CCC(=O)NC5=O)C6=O)c4)sc3C)ccc21` (stereo not shown) [Cpd. No. 4, 2-(3-((14-((2-(2,6-dioxopiperidin-3-yl)-1,3-dioxoisoindolin-4-yl)amino)-3,6,9,12-tetraoxatetradecyl)oxy)phenyl)-N-(5-methyl-4-(1-(2-methylbenzoyl)indolin-5-yl)thiazol-2-yl)acetamide], for which the DC50 at Nrf2 [1] was greater than 10000 nM.

`Cc1sc(NC(=O)Cc2ccc(F)c(OCCOCCNc3ccc4c(c3)CN(C3CCC(=O)NC3=O)C4=O)c2)nc1-c1ccc2c(c1)CCN2C(=O)C1CC1` (stereo not shown) [Cpd. No. 28, N-(4-(1-(cyclopropanecarbonyl)indolin-5-yl)-5-methylthiazol-2-yl)-2-(3-(2-(2-((2-(2,6-dioxopiperidin-3-yl)-1-oxoisoindolin-5-yl)amino)ethoxy)ethoxy)-4-fluorophenyl)acetamide]: the IC50 with A549 came to 0.03 µM; with LK-2 (Homo sapiens, LK-2, 72 h), 0.01 µM. Besides, the DC50 on Nrf2 [2] (setting [3]) and on Nrf2 [2] (setting [4]) was less than 300 nM in each case.

As for `Cc1sc(NC(=O)Cc2ccc(F)c(OCCOCCNc3ccc4c(c3)C(=O)N(C3CCC(=O)NC3=O)C4=O)c2)nc1-c1ccc2c(c1)CCN2C(=O)c1cncn1C` (stereo not shown) [Cpd. No. 29, 2-(3-(2-(2-((2-(2,6-dioxopiperidin-3-yl)-1,3-dioxoisoindolin-5-yl)amino)ethoxy)ethoxy)-4-fluorophenyl)-N-(5-methyl-4-(1-(1-methyl-1H-imidazole-5-carbonyl)indolin-5-yl)thiazol-2-yl)acetamide], the IC50 in the assay on A549 worked out at 0.05 µM; in the assay on LK-2 (Homo sapiens, LK-2, 72 h), 0.01 µM; in the assay with LK-2, 0.02 µM. The 50% degradation concentration (DC50) at Nrf2 [2] (setting [3]) and on Nrf2 [2] (setting [4]) was less than 300 nM in each case.

Take `Cc1ccccc1C(=O)N1CCc2cc(-c3nc(NC(=O)Cc4cccc(OCCN5CCN(c6cccc7c6C(=O)N(C6CCC(=O)NC6=O)C7=O)CC5)c4)sc3C)ccc21` (stereo not shown) [Cpd. No. 31, 2-(3-(2-(4-(2-(2,6-dioxopiperidin-3-yl)-1,3-dioxoisoindolin-4-yl)piperazin-1-yl)ethoxy)phenyl)-N-(5-methyl-4-(1-(2-methylbenzoyl)indolin-5-yl)thiazol-2-yl)acetamide]: the IC50 is greater than 30 µM in the assay with A549 and greater than 30 µM in the assay with LK-2 (Homo sapiens, LK-2, 72 h). Also, the half-maximal degradation concentration (DC50) at Nrf2 [2] (setting [3]) and on Nrf2 [2] (setting [4]) was greater than 3000 nM each time.

For `Cc1sc(NC(=O)Cc2cccc(OCCOCCNc3cccc4c3C(=O)N(C3CCC(=O)NC3=O)C4=O)c2)nc1-c1ccc2c(c1)CCN2C(=O)c1cncn1C` (stereo not shown) [Cpd. No. 35, 2-(3-(2-(2-((2-(2,6-dioxopiperidin-3-yl)-1,3-dioxoisoindolin-4-yl)amino)ethoxy)ethoxy)phenyl)-N-(5-methyl-4-(1-(1-methyl-1H-imidazole-5-carbonyl)indolin-5-yl)thiazol-2-yl)acetamide], the IC50 worked out at 0.03 µM in the assay on A549 and 0.01 µM in the assay on LK-2 (Homo sapiens, LK-2, 72 h). For the same molecule, the values for the DC50 at Nrf2 [2] (setting [3]) and on Nrf2 [2] (setting [4]) were less than 300 nM and greater than 3000 nM, respectively.

With `Cc1sc(NC(=O)Cc2ccc(F)c(OCCOCCNc3cccc4c3C(=O)N(C3CCC(=O)NC3=O)C4=O)c2)nc1-c1ccc2c(c1)CCN2C(=O)C1CC1` (stereo not shown) [Cpd. No. 36, N-(4-(1-(cyclopropanecarbonyl)indolin-5-yl)-5-methylthiazol-2-yl)-2-(3-(2-(2-((2-(2,6-dioxopiperidin-3-yl)-1,3-dioxoisoindolin-4-yl)amino)ethoxy)ethoxy)-4-fluorophenyl)acetamide], the concentration for half-maximal inhibition (IC50) in the assay on A549 amounted to 0.06 µM; in the assay with LK-2 (Homo sapiens, LK-2, 72 h) it was 0.03 µM. For the same molecule, the DC50 on Nrf2 [2] (setting [3]) and on Nrf2 [2] (setting [4]) was less than 300 nM throughout.

Consider `Cc1sc(NC(=O)Cc2ccc(F)c(OCCOCCNc3cccc4c3C(=O)N(C3CCC(=O)NC3=O)C4=O)c2)nc1-c1ccc2c(c1)CCN2C(=O)c1cncn1C` (stereo not shown) [Cpd. No. 37, 2-(3-(2-(2-((2-(2,6-dioxopiperidin-3-yl)-1,3-dioxoisoindolin-4-yl)amino)ethoxy)ethoxy)-4-fluorophenyl)-N-(5-methyl-4-(1-(1-methyl-1H-imidazole-5-carbonyl)indolin-5-yl)thiazol-2-yl)acetamide], for which the IC50 with A549 came out at 0.04 µM; with LK-2 (Homo sapiens, LK-2, 72 h), 0.01 µM. In addition, the half-maximal degradation concentration (DC50) on Nrf2 [2] (setting [3]) and at Nrf2 [2] (setting [4]) was less than 300 nM in each case.

Regarding `Cc1sc(NC(=O)Cc2cccc(OCCCCCNc3cccc4c3C(=O)N(C3CCC(=O)NC3=O)C4=O)c2)nc1-c1ccc2c(c1)CCN2C(=O)C1CC1` (stereo not shown) [Cpd. No. 40, N-(4-(1-(cyclopropanecarbonyl)indolin-5-yl)-5-methylthiazol-2-yl)-2-(3-((5-((2-(2,6-dioxopiperidin-3-yl)-1,3-dioxoisoindolin-4-yl)amino)pentyl)oxy)phenyl)acetamide], the IC50 with A549 was 0.11 µM; with LK-2 (Homo sapiens, LK-2, 72 h) it was 0.08 µM. Besides, the DC50 at Nrf2 [2] (setting [3]) and at Nrf2 [2] (setting [4]) was less than 300 nM in each case.

(Values after patent US20260055097A9, “NRF2 PROTEIN DEGRADERS” (Ganymede Oncology, Inc., priority 2022, published 2026).)
